Where two headings read alike, the source gives them in different places.
Key:
[1] = Study 2: midazolam pharmacokinetics alone or with single and multiple dose entrectinib
Source text: Following completion of this part of the study, subjects could continue in an expanded access portion of the study which is not discussed here.

clinical = details: human, oral
CYP3A4/5 = assay: Effect of CYP-selective inhibitors on metabolism of entrectinib by pooled human liver microsomes; type: in vitro ADME
CYP2D6 = CYP2D6 (Homo sapiens, UniProt P10635); assay: as above; details: inhibitor 1 µM, 1 µM entrectinib
CYP2D6, sequence (P10635 whole entry): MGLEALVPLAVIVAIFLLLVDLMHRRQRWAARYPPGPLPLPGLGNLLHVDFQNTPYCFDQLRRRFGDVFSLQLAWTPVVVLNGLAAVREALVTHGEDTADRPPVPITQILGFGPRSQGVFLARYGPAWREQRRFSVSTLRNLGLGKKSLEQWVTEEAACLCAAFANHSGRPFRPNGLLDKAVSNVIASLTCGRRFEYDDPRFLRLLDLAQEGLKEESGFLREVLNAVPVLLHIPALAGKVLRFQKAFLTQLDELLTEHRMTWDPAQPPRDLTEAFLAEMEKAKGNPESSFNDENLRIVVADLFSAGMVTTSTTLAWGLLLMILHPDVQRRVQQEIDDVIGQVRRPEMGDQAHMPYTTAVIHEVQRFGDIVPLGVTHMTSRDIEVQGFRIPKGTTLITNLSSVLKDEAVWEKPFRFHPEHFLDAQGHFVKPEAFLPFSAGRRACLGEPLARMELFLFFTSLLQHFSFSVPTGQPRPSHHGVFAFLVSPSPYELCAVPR

[2] = Effect of Multiple Dose Entrectinib
[3] = Effect of Single Dose Entrectinib
[4] = Midazolam alone, geometric mean (geometric CV)
[5] = Midazolam with multiple dose entrectinib 600 mg/day, geometric mean (geometric CV)
[6] = Midazolam with multiple dose entrectinib, geometric mean (geometric CV)
[7] = Midazolam with multiple dose entrectinib, median (minimum, maximum)
[8] = Midazolam with single dose entrectinib 600 mg, geometric mean (geometric CV)
[9] = Midazolam with single dose entrectinib, geometric mean (geometric CV)
[10] = Digoxin alone, geometric mean (geometric CV)
[11] = digoxin with entrectinib vs alone
[12] = single dose entrectinib 600 mg vs digoxin alone

OCc1ncc2n1-c1ccc(Cl)cc1C(c1ccccc1F)=NC2 [1’-hydroxymidazolam]
Ratio of adjusted geometric means (90% Confidence Intervals), AUCinf [1, 2]: 0.89 (0.70, 1.12) | Ratio of adjusted geometric means (90% Confidence Intervals), Cmax [1, 2]: 0.49 (0.36, 0.67) | Ratio of adjusted geometric means (90% Confidence Intervals), AUCinf [1, 3]: 0.96 (0.83, 1.10) | Ratio of adjusted geometric means (90% Confidence Intervals), Cmax [1, 3]: 0.62 (0.50, 0.76) | Cmax [1, 4]: 6.57 nM | t1/2 [1, 4]: 3.71 (81%) h | Tmax ([1]; Midazolam alone, median (minimum, maximum)): 0.5 (0.25, 1.00) h | AUCinf ([1]; Midazolam alone, single 7.5 mg midazolam dose (title), subjects with advanced solid tumors, geometric mean (geometric CV)): 14.9 (60%) nM•h | AUCinf [1, 5]: 14.0 (42%) nM•h | Cmax [1, 5]: 3.51 nM | t1/2 [1, 6]: 5.37 (75%) h | Tmax [1, 7]: 0.75 (0.5, 5.97) h | AUCinf [1, 8]: 14.4 (52%) nM•h | Cmax [1, 8]: 4.21 nM | t1/2 [1, 9]: 4.56 (49%) h | Tmax ([1]; Midazolam with single dose entrectinib, median (minimum, maximum)): 1.0 (0.48, 23.6) h | metabolic ratio of metabolite to parent for AUCinf and Cmax, point estimates ([1]; coadministration with multiple-dose entrectinib vs midazolam alone): 59% to 64% | decrease of 1’-hydroxymidazolam metabolite-to-parent ratio ([1]; multiple oral doses of entrectinib at steady-state): 41%

C[C@H]1O[C@@H](O[C@H]2[C@@H](O)C[C@H](O[C@H]3[C@@H](O)C[C@H](O[C@H]4CC[C@@]5(C)[C@H](CC[C@@H]6[C@@H]5C[C@@H](O)[C@]5(C)[C@@H](C7=CC(=O)OC7)CC[C@]65O)C4)O[C@@H]3C)O[C@@H]2C)C[C@H](O)[C@@H]1O [Digoxin]
Cmax [10]: 1.97 nM | fe, percent of dose excreted unchanged in urine [10]: 40.2 (13%) | t1/2 [10]: 35.9 (15%) h | fe, percent of dose excreted unchanged in urine (Digoxin alone, geometric mean (geometric CV), listed as digoxin): 40% | Tmax (Digoxin alone, median (minimum, maximum)): 1.0 (0.5, 1.0) h | CLR (Digoxin alone, renal clearance, geometric mean (geometric CV)): 130 (16%) mL/min | fe, percent of dose excreted unchanged in urine (Digoxin with single 600 mg entrectinib, geometric mean (geometric CV)): 44.0 (14%) | fe, percent of dose excreted unchanged in urine (Digoxin with single 600 mg entrectinib, geometric mean (geometric CV), listed as digoxin): 44% | Ratio of adjusted geometric means (90% Confidence Intervals), AUCinf [11]: 1.18 (1.06, 1.32) | Ratio of adjusted geometric means (90% Confidence Intervals), CLR [11]: 0.95 (0.91, 0.98) | Ratio of adjusted geometric means (90% Confidence Intervals), Cmax [11]: 1.28 (0.98, 1.67) | geometric mean ratio of CLR with and without entrectinib (exploratory analysis, 90% CI: 90.9%, 98.4%): 94.6% | Tmax later (single 600 mg dose of entrectinib coadministered with digoxin): approximately 1 h | increase of AUCinf [12]: 18% | increase of Cmax [12]: 28% | increase in digoxin exposure (single oral dose of entrectinib coadministered): 20–30% | AUC(0-inf) (clinical; plasma, 75 mg): 0.0342 µM·h | AUC(0-inf) (clinical; plasma, 600 mg): 0.0404 µM·h | Cmax (clinical; plasma, 600 mg): 2.52 nM | Tmax (clinical; plasma, 600 mg): 2 h | half-life (clinical; plasma, 600 mg): 38.4 h | CL renal (clinical; urine, 600 mg): 123 mL/min

CC(=O)N1CCN(c2ccc(OCC3COC(Cn4ccnc4)(c4ccc(Cl)cc4Cl)O3)cc2)CC1 (stereo not drawn) [Ketoconazole]
inhibition of entrectinib metabolism depending on the metabolite formed (CYP3A4/5; human liver microsomes): 50–80% | inhibition at 1 µM (CYP3A4/5; human, pooled human liver microsomes, probe entrectinib (metabolism to M5)): 82 ± 3% | Effect on Formation of other Entrectinib Metabolites (CYP3A4/5; inhibitor 1 µM, 1 µM entrectinib, pooled human liver microsomes): + + + (> 50% inhibition of multiple metabolites)

Cc1ncc2n1-c1ccc(Cl)cc1C(c1ccccc1F)=NC2 [Midazolam]
t1/2 [1, 6]: 6.4 (68%) h | Tmax [1, 7]: 0.50 (0, 1.05) h | t1/2 [1, 9]: 5.33 (44%) h | half-life ([1]; human, plasma, oral): 8.13 h | Cmax ([1]; human, plasma, oral, 7.5 mg): 19 nM | Tmax ([1]; human, plasma, oral, 7.5 mg): 0.49 h | half-life ([1]; human, plasma, oral, 7.5 mg): 5.2 h | AUC(0-inf) ([1]; human, plasma, oral, 600 mg): 0.0437 µM·h | Cmax ([1]; human, plasma, oral, 600 mg): 12.9 nM | mean t1/2 ([1]; midazolam with a single dose of entrectinib): 5.73 h

C=C[C@H]1C[N@@]2CC[C@H]1C[C@@H]2[C@@H](O)c1ccnc2ccc(OC)cc12 [Quinidine]
Effect on Formation of other Entrectinib Metabolites (CYP2D6): + (> 20% inhibition of 1 metabolite)
